#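 Step 1: Grow cells in 96-well plates. Step 2: Expose to compound for 48 hours at 5 concentrations. Step 3: Interpolate endpoints linearly; if unreached, use highest concentration. At the GI50, growth is halved. Definition used: TGI = concentration required for complete inhibition of growth.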
# Assays:
# Assay in all cases: NCI anticancer screen, dose series, 48 h
# [1] = system: CAKI-1 renal
# [2] = system: A498 renal
# [3] = system: COLO 205 colon
# [4] = system: ACHN renal
# [5] = system: MCF7 breast
# [6] = system: NCI/ADR-RES ovarian
# [7] = system: SF-539 CNS
# [8] = system: BT-549 breast
# [9] = system: K-562 leukemia
# [10] = system: RPMI-8226 leukemia
# [11] = system: M14 melanoma
# [12] = system: MDA-MB-231 breast
# [13] = system: UACC-62 melanoma
# [14] = system: HS 578T breast
# [15] = system: HCT-15 colon
# [16] = system: A549 NSCLC
# [17] = system: HOP-62 NSCLC
# [18] = system: SN12C renal
# [19] = system: KM12 colon
# [20] = system: OVCAR-5 ovarian
# [21] = system: MDA-MB-435
# [22] = system: HT29 colon
# [23] = system: UACC-257 melanoma
# [24] = system: OVCAR-8 ovarian
# [25] = system: SNB-19 CNS
# [26] = system: OVCAR-4 ovarian
# [27] = system: IGROV1 ovarian
# [28] = system: DU-145 prostate
# [29] = system: NCI-H460 lung
# [30] = system: MALME-3M melanoma
# [31] = system: HCC-2998 colon
# [32] = system: SK-MEL-2 melanoma
# [33] = system: NCI-H522 lung
# [34] = system: SK-OV-3 ovarian
# [35] = system: LOX IMVI melanoma
# [36] = system: UO-31 renal
# [37] = system: SNB-75 CNS
# [38] = system: SF-268 CNS
# [39] = system: NCI-H23 lung
# [40] = system: T-47D breast
# [41] = system: SR leukemia
# [42] = system: 786-0 renal
# [43] = system: SW-620 colon
# [44] = system: SK-MEL-28 melanoma
# [45] = system: RXF 393 renal
# [46] = system: NCI-H226 lung
# [47] = system: SF-295 CNS
# [48] = system: HCT-116 colon
# [49] = system: TK-10 renal
# [50] = system: PC-3 prostate
# [51] = system: SK-MEL-5 melanoma
# [52] = system: U251 CNS
# [53] = system: MOLT-4 leukemia
# [54] = system: OVCAR-3 ovarian
# [55] = system: CCRF-CEM leukemia
# [56] = system: EKVX NSCLC
smiles,measurement,setting,value
CCCCC#Cc1c(I)n(C)c(=O)[nH]c1=O,TGI,[1],0.0843 µM
same,GI50,[2],18.7 µM
same,TGI,[2],32.7 µM
same,GI50,[3],1.93 µM
same,TGI,[3],3.58 µM
same,GI50,[4],1.71 µM
same,TGI,[4],3.08 µM
same,GI50,[5],9.6 µM
same,TGI,[5],25.4 µM
same,GI50,[6],6.48 µM
same,TGI,[6],19.5 µM
same,GI50,[7],15.8 µM
same,TGI,[7],29.2 µM
same,GI50,[8],1.94 µM
same,TGI,[8],4.55 µM
same,GI50,[9],1.82 µM
same,TGI,[9],3.46 µM
same,GI50,[10],2.37 µM
same,TGI,[10],8.41 µM
same,GI50,[11],2.13 µM
same,TGI,[11],4.36 µM
same,GI50,[12],2.06 µM
same,TGI,[12],4.27 µM
same,GI50,[13],3.39 µM
same,TGI,[13],12.2 µM
same,GI50,[14],2.61 µM
same,TGI,[14],7.16 µM
same,GI50,[15],1.52 µM
same,TGI,[15],2.87 µM
same,GI50,[16],19.3 µM
same,TGI,[16],34.9 µM
same,GI50,[17],16.9 µM
same,TGI,[17],31 µM
same,GI50,[18],13.2 µM
same,TGI,[18],26.5 µM
same,GI50,[19],16 µM
same,TGI,[19],29.5 µM
same,GI50,[20],6.38 µM
same,TGI,[20],19.2 µM
same,GI50,[21],1.64 µM
same,TGI,[21],3.88 µM
same,GI50,[22],2.27 µM
same,TGI,[22],5.08 µM
same,GI50,[23],2.46 µM
same,TGI,[23],5.5 µM
same,GI50,[24],3.36 µM
same,TGI,[24],10.1 µM
same,GI50,[25],14.6 µM
same,TGI,[25],29.1 µM
same,GI50,[26],1.76 µM
same,TGI,[26],3.15 µM
same,GI50,[27],1.55 µM
same,TGI,[27],3.04 µM
same,GI50,[28],4.42 µM
same,TGI,[28],15.4 µM
same,GI50,[29],20.1 µM
same,TGI,[29],39.7 µM
same,GI50,[30],1.94 µM
same,TGI,[30],3.55 µM
same,GI50,[31],1.58 µM
same,TGI,[31],2.93 µM
same,GI50,[32],1.93 µM
same,TGI,[32],4.06 µM
same,GI50,[33],1.56 µM
same,TGI,[33],3.25 µM
same,GI50,[34],20.3 µM
same,TGI,[34],34.6 µM
same,GI50,[35],1.62 µM
same,TGI,[35],2.97 µM
same,GI50,[36],2.59 µM
same,TGI,[36],10.2 µM
same,GI50,[37],12.3 µM
same,TGI,[37],24.7 µM
same,GI50,[38],2.68 µM
same,TGI,[38],7.64 µM
same,GI50,[39],2.14 µM
same,TGI,[39],4.43 µM
same,GI50,[40],1.7 µM
same,TGI,[40],6.96 µM
same,GI50,[41],0.895 µM
same,TGI,[41],2.09 µM
same,GI50,[42],16.5 µM
same,TGI,[42],30.1 µM
same,GI50,[43],1.66 µM
same,TGI,[43],3.05 µM
same,GI50,[44],1.75 µM
same,TGI,[44],3.13 µM
same,GI50,[45],2.6 µM
same,TGI,[45],5.91 µM
same,GI50,[46],14.4 µM
same,TGI,[46],27.4 µM
same,GI50,[47],10.6 µM
same,TGI,[47],22.7 µM
same,GI50,[48],1.7 µM
same,TGI,[48],3.07 µM
same,GI50,[49],4.76 µM
same,TGI,[49],16 µM
same,GI50,[50],12.8 µM
same,TGI,[50],25.4 µM
same,GI50,[51],16.4 µM
same,TGI,[51],30 µM
same,GI50,[52],2.42 µM
same,TGI,[52],6.85 µM
same,GI50,[53],2.73 µM
same,TGI,[53],13.9 µM
same,GI50,[54],1.54 µM
same,TGI,[54],2.88 µM
same,GI50,[55],1.74 µM
same,TGI,[55],3.68 µM
same,GI50,[56],15.7 µM
same,TGI,[56],29.1 µM
